Patent publication US12077503B2, “Substituted cyclic amides and their use as herbicides” (FMC CORPORATION, priority 2015, dated 2024)
Where two headings read alike, the source gives them in different places.

Tests used:
Type in all cases: in vivo
[1] = test system: barnyardgrass (Echinochloa crus-galli); assay: Test A preemergence; settings: Echinochloa crus-galli, pre-emergence, 240 h; for pest or weed control at 125 g/ha: 125 g ai/ha; for pest or weed control at 500 g/ha: 500 g ai/ha
In short: (§1)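 Ratings of 0 (no effect) to 100 (complete control) come from visual comparison with untreated controls roughly 10 d after treatment. Test chemicals, formulated in a non-phytotoxic solvent mixture with surfactant, were applied either as a preemergence directed soil spray on seeded soil or postemergence to one- to two-leaf plants 2 to 10 cm tall.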

[2] = test system: sedge, umbrella (small-flower umbrella sedge, Cyperus difformis); assay: Test B flooded paddy test; settings: Cyperus difformis, Flood, 250 g ai/ha, read-out: Sedge, Umbrella plant response rating
In short: (§2)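 Visual ratings (0 none to 100 complete control) are relative to untreated plants, taken 13–15 d after treatment in a greenhouse. Test material went straight into floodwater standing 3 cm above the soil, kept constant, on plants at the 2-leaf stage.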

[3] = test system: ducksalad (Heteranthera limosa); assay: Test B flooded paddy test; settings: Heteranthera limosa, Flood, 250 g ai/ha, read-out: Ducksalad plant response rating
In short: as §2

rice (Oryra sativa) = assay: Test B flooded paddy test; settings: Oryza sativa, Flood, 250 g ai/ha, read-out: Rice plant response rating
In short: as §2

[4] = test system: barnyardgrass (Echinochloa crus-galli); assay: Test B flooded paddy test; settings: Echinochloa crus-galli, Flood, 250 g ai/ha, read-out: Barnyardgrass plant response rating
In short: as §2

[5] = test system: pigweed (Amaranthus retroflexus); assay: Test A postemergence; settings: Amaranthus retroflexus, post-emergence, 240 h, postemergence; for pest or weed control at 125 g/ha: 125 g ai/ha
In short: as §1

[6] = test system: Galium (catchweed bedstraw, Galium aparine); assay: Test A postemergence; settings: Galium, post-emergence, 240 h, postemergence; for pest or weed control at 125 g/ha: 125 g ai/ha
In short: as §1

[7] = test system: blackgrass (Alopecurus myosuroides); assay: Test A postemergence; settings: Alopecurus myosuroides, post-emergence, 240 h, postemergence; for pest or weed control at 125 g/ha: 125 g ai/ha
In short: as §1

[8] = test system: giant foxtail (Setaria faberii); assay: Test A postemergence; settings: Setaria faberi, post-emergence, 240 h, postemergence; for pest or weed control at 125 g/ha: 125 g ai/ha
In short: as §1

[9] = test system: ryegrass, Italian (Italian ryegrass, Lolium multiflorum); assay: Test A postemergence; settings: Lolium multiflorum, post-emergence, 240 h, postemergence; for pest or weed control at 125 g/ha: 125 g ai/ha
In short: as §1

[10] = test system: barnyardgrass (Echinochloa crus-galli); assay: Test A postemergence; settings: Echinochloa crus-galli, post-emergence, 240 h, postemergence; for pest or weed control at 125 g/ha: 125 g ai/ha
In short: as §1

[11] = test system: wheat (Triticum aestivum); assay: Test A postemergence; settings: Triticum aestivum, post-emergence, 240 h, postemergence; for plant injury at 125 g/ha: 125 g ai/ha
In short: as §1

[12] = test system: ragweed (common ragweed, Ambrosia elatior); assay: Test A postemergence; settings: Ambrosia artemisiifolia, post-emergence, 240 h, postemergence; for pest or weed control at 125 g/ha: 125 g ai/ha
In short: as §1

corn (Zea mays) = assay: Test A postemergence; settings: Zea mays, post-emergence, 240 h, postemergence; for plant injury at 125 g/ha: 125 g ai/ha
In short: as §1

Kochia (Kochia scoparia) = assay: Test A postemergence; settings: Bassia scoparia, post-emergence, 240 h, postemergence; for pest or weed control at 125 g/ha: 125 g ai/ha
In short: as §1

[13] = preemergence, 0 to 100 scale where 0 is no effect and 100 is complete control, read-out: Barnyardgrass plant response rating
[14] = scale of 0 to 100 where 0 is no effect and 100 is complete control
[15] = 0 to 100 scale where 0 is no effect and 100 is complete control

Cc1cc(C)cc([C@H]2CNC(=O)[C@@H]2C(=O)Nc2cccc(F)c2F)c1 [Compound 889]
pest or weed control at 125 g/ha [1, 13]: 90%
pest or weed control at 500 g/ha ([1]; Preemergence, visual injury vs untreated controls after approximately 10 d, read-out: Barnyardgrass plant response rating (0 to 100 scale where 0 is no effect and 100 is complete control)): 90%
pest or weed control at 250 g/ha [2, 14]: 0%
pest or weed control at 250 g/ha [3, 14]: 75%
pest or weed control at 250 g/ha (rice (Oryra sativa); [14]): 0%
pest or weed control at 250 g/ha [4, 14]: 60%
pest or weed control at 125 g/ha ([5]; visual injury rating after approximately 10 d, read-out: Pigweed plant response rating (0 to 100 scale, 0 no effect, 100 complete control)): 0%
pest or weed control at 125 g/ha ([6]; visual injury rating after approximately 10 d, read-out: Galium plant response rating (0 to 100 scale, 0 no effect, 100 complete control)): 30%
pest or weed control at 125 g/ha ([7]; visual injury rating after approximately 10 d, read-out: Blackgrass plant response rating (0 to 100 scale, 0 no effect, 100 complete control)): 20%
pest or weed control at 125 g/ha ([8]; visual injury rating after approximately 10 d, read-out: Foxtail, Giant plant response rating (0 to 100 scale, 0 no effect, 100 complete control)): 40%
pest or weed control at 125 g/ha ([9]; visual injury rating after approximately 10 d, read-out: Ryegrass, Italian plant response rating (0 to 100 scale, 0 no effect, 100 complete control)): 40%
pest or weed control at 125 g/ha ([10]; visual injury rating after approximately 10 d, read-out: Barnyardgrass plant response rating (0 to 100 scale, 0 no effect, 100 complete control)): 70%
plant injury at 125 g/ha ([11]; visual injury rating after approximately 10 d, read-out: Wheat plant response rating (0 to 100 scale, 0 no effect, 100 complete control)): 0%
pest or weed control at 125 g/ha ([12]; visual injury rating after approximately 10 d, read-out: Ragweed plant response rating (0 to 100 scale, 0 no effect, 100 complete control)): 0%
plant injury at 125 g/ha (corn (Zea mays); visual injury rating after approximately 10 d, read-out: Corn plant response rating (0 to 100 scale, 0 no effect, 100 complete control)): 20%
pest or weed control at 125 g/ha (Kochia (Kochia scoparia); visual injury rating after approximately 10 d, read-out: Kochia plant response rating (0 to 100 scale, 0 no effect, 100 complete control)): 0%

CC(C)Oc1ccc([C@H]2CNC(=O)[C@@H]2C(=O)Nc2ccc(F)cc2F)cc1 [Compound 1137]
pest or weed control at 125 g/ha ([1]; preemergence, 0 to 100 scale where 0 is no effect and 100 is complete control, approx. 10 d, read-out: Barnyardgrass plant response rating): 0%
pest or weed control at 500 g/ha [1, 13]: 0%
pest or weed control at 250 g/ha [2, 15]: 0%
pest or weed control at 250 g/ha [3, 15]: 0%
pest or weed control at 250 g/ha (rice (Oryra sativa); [15]): 0%
pest or weed control at 250 g/ha [4, 15]: 0%
pest or weed control at 125 g/ha ([5]; visual injury on 0 to 100 scale (0 no effect, 100 complete control), approx. 10 d, read-out: Pigweed plant response rating): 0%
pest or weed control at 500 g/ha ([5]; 500 g ai/ha, 0 to 100 scale, 0 is no effect, 100 is complete control, read-out: Pigweed plant response rating): 0%
pest or weed control at 125 g/ha ([6]; visual injury on 0 to 100 scale (0 no effect, 100 complete control), approx. 10 d, read-out: Galium plant response rating): 0%
pest or weed control at 500 g/ha ([6]; 500 g ai/ha, 0 to 100 scale, 0 is no effect, 100 is complete control, read-out: Galium plant response rating): 0%
pest or weed control at 125 g/ha ([7]; visual injury on 0 to 100 scale (0 no effect, 100 complete control), approx. 10 d, read-out: Blackgrass plant response rating): 0%
pest or weed control at 500 g/ha ([7]; 500 g ai/ha, 0 to 100 scale, 0 is no effect, 100 is complete control, read-out: Blackgrass plant response rating): 0%
pest or weed control at 125 g/ha ([8]; visual injury on 0 to 100 scale (0 no effect, 100 complete control), approx. 10 d, read-out: Foxtail, Giant plant response rating): 0%
pest or weed control at 500 g/ha ([8]; 500 g ai/ha, 0 to 100 scale, 0 is no effect, 100 is complete control, read-out: Foxtail, Giant plant response rating): 0%
pest or weed control at 125 g/ha ([9]; visual injury on 0 to 100 scale (0 no effect, 100 complete control), approx. 10 d, read-out: Ryegrass, Italian plant response rating): 0%
pest or weed control at 500 g/ha ([9]; 500 g ai/ha, 0 to 100 scale, 0 is no effect, 100 is complete control, read-out: Ryegrass, Italian plant response rating): 0%
pest or weed control at 125 g/ha ([10]; visual injury on 0 to 100 scale (0 no effect, 100 complete control), approx. 10 d, read-out: Barnyardgrass plant response rating): 0%
pest or weed control at 500 g/ha ([10]; 500 g ai/ha, 0 to 100 scale, 0 is no effect, 100 is complete control, read-out: Barnyardgrass plant response rating): 0%
plant injury at 125 g/ha ([11]; visual injury on 0 to 100 scale (0 no effect, 100 complete control), approx. 10 d, read-out: Wheat plant response rating): 0%
plant injury at 500 g/ha ([11]; 500 g ai/ha, 0 to 100 scale, 0 is no effect, 100 is complete control, read-out: Wheat plant response rating): 0%
pest or weed control at 125 g/ha ([12]; visual injury on 0 to 100 scale (0 no effect, 100 complete control), approx. 10 d, read-out: Ragweed plant response rating): 0%
pest or weed control at 500 g/ha ([12]; 500 g ai/ha, 0 to 100 scale, 0 is no effect, 100 is complete control, read-out: Ragweed plant response rating): 0%
plant injury at 125 g/ha (corn (Zea mays); visual injury on 0 to 100 scale (0 no effect, 100 complete control), approx. 10 d, read-out: Corn plant response rating): 0%
plant injury at 500 g/ha (corn (Zea mays); 500 g ai/ha, 0 to 100 scale, 0 is no effect, 100 is complete control, read-out: Corn plant response rating): 0%
pest or weed control at 125 g/ha (Kochia (Kochia scoparia); visual injury on 0 to 100 scale (0 no effect, 100 complete control), approx. 10 d, read-out: Kochia plant response rating): 0%
pest or weed control at 500 g/ha (Kochia (Kochia scoparia); 500 g ai/ha, 0 to 100 scale, 0 is no effect, 100 is complete control, read-out: Kochia plant response rating): 0%
